Measurements from PubChem BioAssay (NCI).
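The compound was tested at five concentrations on cells cultured in 96-well plates, with a 48-hour exposure period. GI50 marks 50% less growth. TGI denotes the concentration required for complete inhibition of growth.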

Columns and labels:
Test in all cases: NCI tumour cell line growth inhibition, 48 h
[1] = test system: HL-60(TB) leukemia
[2] = test system: SF-539 CNS
[3] = test system: T-47D breast
[4] = test system: PC-3 prostate
[5] = test system: HCT-116 colon
[6] = test system: OVCAR-8 ovarian
[7] = test system: SW-620 colon
[8] = test system: ACHN renal
[9] = test system: SR leukemia
[10] = test system: NCI-H226 lung
[11] = test system: UACC-62 melanoma
[12] = test system: LOX IMVI melanoma
[13] = test system: SF-295 CNS
[14] = test system: HOP-92 NSCLC
[15] = test system: MDA-MB-435
[16] = test system: A498 renal
[17] = test system: MCF7 breast
[18] = test system: HOP-62 NSCLC
[19] = test system: SK-MEL-5 melanoma
[20] = test system: K-562 leukemia
[21] = test system: U251 CNS
[22] = test system: HCT-15 colon
[23] = test system: HS 578T breast
[24] = test system: OVCAR-3 ovarian
[25] = test system: BT-549 breast
[26] = test system: TK-10 renal
[27] = test system: NCI/ADR-RES ovarian
[28] = test system: SK-MEL-2 melanoma
[29] = test system: 786-0 renal
[30] = test system: EKVX NSCLC
[31] = test system: SNB-75 CNS
[32] = test system: MDA-MB-231 breast
[33] = test system: NCI-H460 lung
[34] = test system: M14 melanoma
[35] = test system: MALME-3M melanoma
[36] = test system: DU-145 prostate
[37] = test system: RPMI-8226 leukemia
[38] = test system: NCI-H522 lung
[39] = test system: NCI-H23 lung
[40] = test system: COLO 205 colon
[41] = test system: SK-OV-3 ovarian
[42] = test system: SNB-19 CNS
[43] = test system: UO-31 renal
[44] = test system: HT29 colon
[45] = test system: SN12C renal
[46] = test system: A549 NSCLC
[47] = test system: SF-268 CNS
[48] = test system: CAKI-1 renal
[49] = test system: CCRF-CEM leukemia
[50] = test system: RXF 393 renal
[51] = test system: UACC-257 melanoma
[52] = test system: SK-MEL-28 melanoma
[53] = test system: KM12 colon
[54] = test system: MOLT-4 leukemia
[55] = test system: IGROV1 ovarian
[56] = test system: OVCAR-5 ovarian
[57] = test system: OVCAR-4 ovarian
[58] = test system: HCC-2998 colon

Structure (SMILES): COc1cc2c3c(n(CCCN4CCC[C@H]4C(N)=O)c(=O)c2cc1OC)-c1cc2c(cc1C3=O)OCO2
- GI50 [1]: 0.0371 µM
- TGI [1]: 3.7 µM
- GI50 [2]: 0.0296 µM
- TGI [2]: 0.541 µM
- GI50 [3]: 0.0313 µM
- GI50 [4]: 0.329 µM
- TGI [4]: 22.6 µM
- GI50 [5]: 0.0322 µM
- TGI [5]: 3.67 µM
- GI50 [6]: 0.0783 µM
- TGI [6]: 2.71 µM
- GI50 [7]: 0.0897 µM
- TGI [7]: > 48.2 µM
- GI50 [8]: 0.0274 µM
- TGI [8]: 3.86 µM
- TGI [9]: 0.54 µM
- GI50 [10]: 0.0481 µM
- TGI [10]: 1.18 µM
- GI50 [11]: 0.0193 µM
- TGI [11]: 3.21 µM
- GI50 [12]: 0.0193 µM
- TGI [12]: 0.485 µM
- GI50 [13]: 0.0179 µM
- TGI [13]: 15 µM
- GI50 [14]: 0.808 µM
- TGI [14]: > 29.5 µM
- GI50 [15]: 0.148 µM
- TGI [15]: 14 µM
- TGI [16]: > 100 µM
- GI50 [17]: < 0.0107 µM
- TGI [17]: 1.42 µM
- GI50 [18]: 0.0293 µM
- TGI [18]: 12.7 µM
- GI50 [19]: 0.0407 µM
- TGI [19]: 0.199 µM
- GI50 [20]: 0.041 µM
- TGI [20]: 2.58 µM
- GI50 [21]: 0.0249 µM
- TGI [21]: 1.89 µM
- GI50 [22]: 0.318 µM
- TGI [22]: 5.8 µM
- GI50 [23]: > 100 µM
- TGI [23]: > 100 µM
- GI50 [24]: 0.161 µM
- TGI [24]: 3.66 µM
- GI50 [25]: 0.0707 µM
- TGI [25]: 13.9 µM
- GI50 [26]: > 42.3 µM
- TGI [26]: > 100 µM
- GI50 [27]: 0.154 µM
- TGI [27]: > 100 µM
- GI50 [28]: > 100 µM
- TGI [28]: > 100 µM
- GI50 [29]: 0.0392 µM
- TGI [29]: 1.53 µM
- TGI [30]: > 100 µM
- GI50 [31]: 0.0301 µM
- TGI [31]: 1.2 µM
- GI50 [32]: 1.16 µM
- TGI [32]: 16.2 µM
- GI50 [33]: < 0.0152 µM
- GI50 [34]: 0.0358 µM
- TGI [34]: 2.46 µM
- GI50 [35]: 0.375 µM
- TGI [35]: > 57 µM
- GI50 [36]: 0.0382 µM
- TGI [36]: 12.6 µM
- GI50 [37]: 0.0829 µM
- TGI [37]: 2.36 µM
- GI50 [38]: 0.0236 µM
- TGI [38]: 4.48 µM
- GI50 [39]: 0.0448 µM
- TGI [39]: 2.32 µM
- GI50 [40]: 0.223 µM
- TGI [40]: > 100 µM
- GI50 [41]: 0.0396 µM
- TGI [41]: 1.26 µM
- GI50 [42]: 0.0405 µM
- TGI [42]: > 100 µM
- GI50 [43]: 0.0409 µM
- TGI [43]: > 41 µM
- GI50 [44]: 0.0674 µM
- TGI [44]: 0.671 µM
- GI50 [45]: 0.0422 µM
- TGI [45]: > 52.4 µM
- GI50 [46]: 0.103 µM
- TGI [46]: > 57.3 µM
- GI50 [47]: 0.0398 µM
- TGI [47]: > 100 µM
- GI50 [48]: 0.0162 µM
- TGI [48]: 20.7 µM
- GI50 [49]: < 0.0146 µM
- TGI [49]: 4.6 µM
- GI50 [50]: 0.167 µM
- TGI [50]: 2.32 µM
- GI50 [51]: 0.232 µM
- TGI [51]: > 100 µM
- GI50 [52]: 1.88 µM
- TGI [52]: > 100 µM
- GI50 [53]: 0.415 µM
- TGI [53]: 11.1 µM
- GI50 [54]: < 0.0125 µM
- TGI [54]: 0.178 µM
- GI50 [55]: 0.379 µM
- TGI [55]: 34.9 µM
- GI50 [56]: 0.319 µM
- TGI [56]: 26.5 µM
- GI50 [57]: 0.905 µM
- TGI [57]: 5.69 µM
- GI50 [58]: 0.224 µM
- TGI [58]: 13.8 µM

Structure (SMILES): CN1CCN(c2ccc(Nc3nc(NCCCNS(=O)(=O)c4ccc(Cl)cc4)c4sccc4n3)cc2)CC1
- GI50 [1]: 2.12 µM
- TGI [1]: 5.11 µM
- GI50 [2]: 1.82 µM
- TGI [2]: 3.55 µM
- GI50 [3]: 22.1 µM
- TGI [3]: 54.1 µM
- GI50 [4]: 9.62 µM
- TGI [4]: 26.4 µM
- GI50 [5]: 2.3 µM
- TGI [5]: 6.99 µM
- GI50 [6]: 8.57 µM
- TGI [6]: 53.8 µM
- GI50 [7]: 5.2 µM
- TGI [7]: 18.6 µM
- GI50 [8]: 11.2 µM
- TGI [8]: 23.2 µM
- GI50 [9]: 2.83 µM
- TGI [9]: > 100 µM
- GI50 [10]: 12 µM
- TGI [10]: 24.9 µM
- GI50 [11]: 3 µM
- TGI [11]: 11.1 µM
- GI50 [12]: 1.69 µM
- TGI [12]: 3.48 µM
- GI50 [13]: 12.2 µM
- TGI [13]: 27 µM
- GI50 [14]: 2.16 µM
- TGI [14]: 16.2 µM
- GI50 [15]: 9.17 µM
- TGI [15]: 21.2 µM
- GI50 [16]: 20.4 µM
- TGI [16]: 34.8 µM
- GI50 [17]: 6.47 µM
- TGI [17]: 21.1 µM
- GI50 [18]: 19.6 µM
- TGI [18]: 37 µM
- GI50 [19]: 10.2 µM
- TGI [19]: 22 µM
- GI50 [20]: 2.95 µM
- TGI [20]: > 100 µM
- GI50 [21]: 4.06 µM
- TGI [21]: 23.2 µM
- GI50 [22]: 3.08 µM
- TGI [22]: 12.4 µM
- GI50 [23]: 13.8 µM
- TGI [23]: 44.7 µM
- GI50 [24]: 6.81 µM
- TGI [24]: 35.9 µM
- GI50 [25]: 3.12 µM
- TGI [25]: 14.4 µM
- GI50 [26]: 19.6 µM
- TGI [26]: 35.7 µM
- GI50 [27]: 19.4 µM
- TGI [27]: 58.3 µM
- GI50 [28]: 17.2 µM
- TGI [28]: 33.1 µM
- GI50 [29]: 2.12 µM
- TGI [29]: 6.29 µM
- GI50 [30]: 14.1 µM
- TGI [30]: 30 µM
- GI50 [31]: 13.5 µM
- TGI [31]: 26.5 µM
- GI50 [32]: 4.94 µM
- TGI [32]: 17.3 µM
- GI50 [33]: 8.01 µM
- TGI [33]: 22 µM
- GI50 [34]: 2 µM
- TGI [34]: 3.94 µM
- GI50 [35]: 2.12 µM
- TGI [35]: 3.91 µM
- GI50 [36]: 14 µM
- TGI [36]: 28.9 µM
- GI50 [37]: 3.04 µM
- TGI [37]: 9.67 µM
- GI50 [38]: 11.8 µM
- TGI [38]: 27 µM
- GI50 [39]: 14.1 µM
- TGI [39]: 29.1 µM
- GI50 [40]: 15.6 µM
- TGI [40]: 37.8 µM
- GI50 [41]: 29 µM
- TGI [41]: 60.9 µM
- GI50 [42]: 10.6 µM
- TGI [42]: 22.4 µM
- GI50 [43]: 13 µM
- TGI [43]: 25.7 µM
- GI50 [44]: 3.75 µM
- TGI [44]: 19.4 µM
- GI50 [45]: 12.9 µM
- TGI [45]: 25.5 µM
- GI50 [46]: 18.7 µM
- TGI [46]: 61.7 µM
- GI50 [47]: 11.5 µM
- TGI [47]: 34.9 µM
- GI50 [48]: 15.5 µM
- TGI [48]: 28.8 µM
- GI50 [49]: 4.22 µM
- TGI [49]: > 100 µM
- GI50 [51]: 2.39 µM
- TGI [51]: 6.44 µM
- GI50 [52]: 2.38 µM
- TGI [52]: 6.22 µM
- GI50 [53]: 16.4 µM
- TGI [53]: 51.1 µM
- GI50 [54]: 3.58 µM
- TGI [54]: 33.4 µM
- GI50 [55]: 10.7 µM
- TGI [55]: 22.8 µM
- GI50 [56]: 13.3 µM
- TGI [56]: 27.4 µM
- GI50 [57]: 12.2 µM
- TGI [57]: 25.1 µM
- GI50 [58]: 7.31 µM
- TGI [58]: 20 µM
